Patent publication US20190255019A1, “NOVEL DOSAGE REGIMEN” (Biogen MA Inc., priority 2016, published 2019)

How the values were obtained:
[1] = 150 mg TID dosage study, pharmacokinetics; conditions: both sexes, human, in vivo
Protocol: A clinical trial was conducted to evaluate certain pharmacokinetic parameters of the compound of Example 1 when dosed at 150 mg TID for seven days. 15 young males and females aged 18 to 45 were scheduled to received ether the compound of Example 1 at 150 mg TID during a first period of 8 days followed by placebo during a second period of 8 days; or placebo during the first period and the compound of Example 1 during the second period.

[2] = tested on: dogs; conditions: dog, in vivo
Description: The 36 day treatment duration in this study was rationally designed to determine whether tolerance developed for any potential effects of BIIB074 on SBP or DBP, since BP effects resolved by day 28 in the earlier phase 1 trial. The data from this study show a slight trend towards a decrease in the BP difference between BIIB074 and placebo between day 4 and day 35, although differences were minimal at all time points. […] Thus, the body of evidence, encompassing clinical and preclinical studies, supports safety and minimal effects of BIIB074 on BP/cardiovascular parameters.

[3] = tested on: rat model of inflammation; experiment: Freud Complete Adjuvant induced inflammation model, mechanical hypersensitivity by weight bearing; assay type: in vivo
Protocol: FIG. 1: PK modelling plots: For all doses, the CTrough is higher than efficacious doses in animal model of inflammation. […] FCA1, an oral dose of 1 mg/kg was the minimal effective dose in this model. TGN (trigeminal neuralgia), PLSR (painful lumbosacral radiculopathy).
In this model, inflammation was induced by intraplantar injection of Freud Complete Adjuvant.
Mechanical hypersensitivity was then assessed using weight bearing.

[4] = tested on: painful lumbosacral radiculopathy; experiment: Clinical efficacy in painful lumbosacral radiculopathy (Phase 2); assay type: in vivo, human; conditions: 350 mg bid, PLSR
[5] = PK modelling of plasma exposure of Example 1 for different dosing regimens; set-up: species or system human; conditions: modelled
Description: In Table 1, free plasma CMax exposures of Example 1 obtained from modelling different dosing regimens were used to quantify the resulting amount of block at the primary target hNaV1.7. […] Doses of marketed drugs used in trigeminal neuralgia were compared using the same paradigm.

[6] = tested on: healthy participants; experiment: Phase 1 cross-over ambulatory blood pressure monitoring (ABPM) study, 300/400 mg BID; assay type: in vivo, human; conditions: for Observations with DBP: Change > 10 and absolute value > 80 mmHg / Observations with SBP: Change > 10 and absolute value > 130 mmHg: outpatient, number of observations (%)
Protocol: This study reports the results of a Phase 1, randomized cross-over trial designed to assess inpatient and outpatient ambulatory blood pressure monitoring (ABPM) in healthy volunteers treated with the compound of Example 1 (BIIB074) for 36 days.
This was a Phase 1, randomized, double-blind, placebo-controlled, repeat dose, 2-period cross-over study to investigate the effect of BIIB074 300-400 mg bid on ambulatory blood pressure (ABP) in healthy participants (FIG. 2). The study comprised: screening (to occur a maximum of 30 days before the first baseline assessment); two 36-day treatment periods, each preceded by a baseline visit and separated by a 7-day washout (to minimize possible carry over effects); and a follow-up period of 7-14 days after last dose. Prior to this study, no females had received BIIB074; for this reason, a single dose BIIB074 session at the dose level of 400 mg was also conducted in female participants one week prior to the period 1 baseline visit. Following this session, some participants were predicted to exceed the predefined PK limit (area under the plasma concentration-time curve [AUC] 97 μg·h/mL) when receiving 400 mg bid at steady state. Therefore, in the subsequent phases of the study, all female participants received a lower dose of 300 mg bid (males received 400 mg bid).
The primary endpoint was change in 24 h average SBP and DBP from baseline to day 36 as determined by ABPM. Secondary outcome measures included: change in 24 h average SBP and DBP from baseline to days 4 and 15; change in average SBP and DBP within a 12 h dosing interval from baseline to days 14 and 35 (inpatient); change in 24 h average ambulatory heart rate from baseline to days 4, 15 and 36; proportion of participants whose 24 h SBP and DBP increased by <5, 5-9, 10-14, 15-19, and >20 mm Hg compared with baseline; PK parameters of BIIB074 following a single oral dose in healthy female participants, and following repeated oral doses given twice daily to healthy male and female participants; PK/pharmacodynamic (PD) analyses to examine the correlation between ABP and plasma levels and/or metrics of the systemic exposure of BIIB074.
ABP was collected over 24 hours on an outpatient basis at baseline and at days 4, 15 and 36, and over 12 hours on an inpatient basis at baseline, and at days 14 and 35. The ABPM device was placed on the non-dominant arm (except in clinical situations that prohibited measuring BP in the non-dominant arm). BP and heart rate were measured every 15 minutes.
Non-inferiority was based on the one-sided 95% confidence interval (CI) for BIIB074-placebo excluding […] in SBP or DBP. It was planned to recruit approximately 60 participants in order to obtain a minimum of 48 evaluable for ABPM during the repeat dose phase, for at least 90% power, assuming a within-subject standard deviation (SDw) of 8.21 mmHg.
ABPM data were analyzed using a repeated measures mixed effects model, whereby fixed effects were treatment, day, treatment*day, period, average baseline*day, period adjusted baseline*day, sex and treatment*sex; random effect was subject; and repeated effect was day. All summary statistics were carried out using SAS 8.02 for UNIX running under the Harmonisation of Analysis and Reporting Program (HARP) environment. PK parameters were calculated by standard non-compartmental analysis according to working practices and using Wn Nonlin Pro v. 5.2.

Cl.NC(=O)[C@@H]1CC[C@H](c2ccc(OCc3ccccc3F)cc2)N1 [Example 1, (5R)-5-(4-{[(2-Fluorophenyl)methyl]oxy}phenyl)-L-prolinamide hydrochloride]
Cmax ([1]; day 8): 2710 ng/mL | AUC(0-t) ([1]; day 8, read-out: AUC0-8): 15300 ng·h/mL | effects on cardiovascular parameters [2]: no effects of BIIB074 on cardiovascular parameters in dogs | minimal effective dose ([3]; oral): 1 mg/kg | effect on mechanical hypersensitivity ([3]; oral 5 mg/kg): fully reversed the mechanical hypersensitivity | Clinical efficacy [4]: EFFICACY OBSERVED | CTrough exposure at steady state ([5]; 150 mg TID): 1099 ng/mL | Cmax Free plasma ([5]; 150 mg tid): 210 nM | Cmax total plasma ([5]; 150 mg tid): (2.06 μg/ml total plasma) | Cmax Free plasma ([5]; 200 mg bid): 290 nM | Cmax total plasma ([5]; 200 mg bid): (2.8 μg/ml total plasma) | CTrough exposure at steady state ([5]; 250 mg TID): 1750 ng/mL | Cmax Free plasma ([5]; 250 mg tid): 360 nM | Cmax total plasma ([5]; 250 mg tid): (3.43 μg/ml total plasma) | Cmax Free plasma ([5]; 350 mg bid): 370 nM | Cmax total plasma ([5]; 350 mg bid): (3.74 μg/ml total plasma) | average increase of SBP over the 24 h interval ([6]; PK/PD, inpatient ABPM): < 2 mmHg | observations with DBP increase more than 10 mmHg and absolute value >80 mmHg ([6]; day 36): 6.9% | observations with SBP increase more than 10 mmHg and absolute value >130 mmHg ([6]; day 36): 5.0% | slight increase in change from baseline for SBP, DBP and heart rate ([6]; inpatient ABPM, days 14 and 35): 2.0-2.5 mmHg/bpm | observations in category increase from baseline SBP >30 mmHg ([6]; outpatient 24 h, day 36, 4/1249 observations): 0% | observations in category increase from baseline DBP >20 mmHg ([6]; outpatient 24 h, day 36, 35/1249 observations): 3% | Observations with DBP: Change > 10 and absolute value > 80 mmHg ([6]; day 4, 300-400 mg repeat dose): 137 (10.6%) | Observations with SBP: Change > 10 and absolute value > 130 mmHg ([6]; day 4, 300-400 mg repeat dose): 116 (9.0%) | Observations with DBP: Change > 10 and absolute value > 80 mmHg ([6]; day 15, 300-400 mg repeat dose): 109 (8.3%) | Observations with SBP: Change > 10 and absolute value > 130 mmHg ([6]; day 15, 300-400 mg repeat dose): 95 (7.2%) | Observations with DBP: Change > 10 and absolute value > 80 mmHg ([6]; day 36, 300-400 mg repeat dose): 86 (6.9%) | Observations with SBP: Change > 10 and absolute value > 130 mmHg ([6]; day 36, 300-400 mg repeat dose): 63 (5.0%) | overall change in SBP and DBP, outpatient and inpatient ABPM ([6]; repeat doses for 36 days): lack of clinically relevant change in SBP and DBP
